Results reported in article PMC12626888, “Discovery of iridoid cyclase completes the iridoid pathway in asterids” (Nature Plants, 2025).

Experiments:
Assay type in all cases: biochemical
[1] = biological target: T1, CiICYC (Carapichea ipecacuanha, UniProt Z9ZM09DHC0); assay: spectrophotometric esterase assay, […] nm; conditions: 2 mM substrate; 0.5 uM enzyme; 100 mM HEPES pH 7; 1 mM CaCl2; 25 °C
T1 construct: full-length CDS in pOPINF, His-tagged, E. coli SoluBL21 (DE3), Ni-NTA
T1 sequence (Z9ZM09DHC0 1-260): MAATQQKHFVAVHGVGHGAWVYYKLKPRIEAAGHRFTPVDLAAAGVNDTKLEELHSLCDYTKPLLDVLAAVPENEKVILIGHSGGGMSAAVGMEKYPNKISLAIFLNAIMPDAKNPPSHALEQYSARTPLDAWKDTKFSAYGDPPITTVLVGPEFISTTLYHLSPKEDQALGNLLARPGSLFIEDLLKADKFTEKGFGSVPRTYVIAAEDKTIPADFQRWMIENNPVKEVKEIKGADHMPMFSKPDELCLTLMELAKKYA

[2] = biological target: T2, VcICYC (Vaccinium corymbosum, UniProt Z9DZC4CR80); assay: spectrophotometric esterase assay, […] nm; conditions: 2 mM substrate; 0.5 uM enzyme; 100 mM HEPES pH 7; 1 mM CaCl2; 25 °C
T2 construct: synthetic full-length gene in pOPINF, His-tagged, E. coli SoluBL21 (DE3), Ni-NTA
T2 sequence (Z9DZC4CR80 1-256): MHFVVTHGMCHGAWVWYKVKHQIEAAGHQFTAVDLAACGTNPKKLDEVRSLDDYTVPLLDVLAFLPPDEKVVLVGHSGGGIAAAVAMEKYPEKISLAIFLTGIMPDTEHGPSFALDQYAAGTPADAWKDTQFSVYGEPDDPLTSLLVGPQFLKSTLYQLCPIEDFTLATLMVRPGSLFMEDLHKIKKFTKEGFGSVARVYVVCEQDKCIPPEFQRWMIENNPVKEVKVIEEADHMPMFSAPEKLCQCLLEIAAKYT

[3] = biological target: T3, CrICYC (Catharanthus roseus, UniProt Z9BZX6L7S3); assay: spectrophotometric esterase assay, […] nm; conditions: 2 mM substrate; 0.5 uM enzyme; 100 mM HEPES pH 7; 1 mM CaCl2; 25 °C
T3 construct: full-length CDS in pOPINF, His-tagged, E. coli SoluBL21 (DE3), Ni-NTA
T3 sequence (Z9BZX6L7S3 1-258): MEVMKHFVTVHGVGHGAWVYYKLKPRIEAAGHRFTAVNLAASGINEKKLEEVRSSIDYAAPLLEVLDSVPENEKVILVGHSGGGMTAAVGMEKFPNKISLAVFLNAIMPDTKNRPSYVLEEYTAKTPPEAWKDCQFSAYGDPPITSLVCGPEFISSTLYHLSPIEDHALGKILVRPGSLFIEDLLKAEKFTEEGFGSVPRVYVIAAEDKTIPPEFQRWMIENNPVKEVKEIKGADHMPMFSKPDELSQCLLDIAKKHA

[4] = biological target: T4, SiICYC (Sesamum indicum, UniProt A0A6I9UJQ5); assay: spectrophotometric esterase assay, […] nm; conditions: 2 mM substrate; 0.5 uM enzyme; 100 mM HEPES pH 7; 1 mM CaCl2; 25 °C
T4 construct: gene LOC105177689; synthetic full-length gene in pOPINF, His-tagged, E. coli SoluBL21 (DE3), Ni-NTA
T4 sequence (A0A6I9UJQ5 entry or part of it): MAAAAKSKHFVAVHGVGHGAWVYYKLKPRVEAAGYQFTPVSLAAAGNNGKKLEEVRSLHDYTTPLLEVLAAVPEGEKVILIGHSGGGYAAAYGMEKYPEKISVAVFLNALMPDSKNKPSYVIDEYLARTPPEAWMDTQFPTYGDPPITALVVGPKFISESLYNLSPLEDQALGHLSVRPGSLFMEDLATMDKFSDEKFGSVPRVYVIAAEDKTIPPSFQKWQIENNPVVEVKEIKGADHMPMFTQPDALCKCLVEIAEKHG

[5] = biological target: T5, AsICYC (Alangium salviifolium, UniProt Z9MAI7V5A1); assay: spectrophotometric esterase assay, […] nm; conditions: 2 mM substrate; 0.5 uM enzyme; 100 mM HEPES pH 7; 1 mM CaCl2; 25 °C
T5 construct: full-length CDS in pOPINF, His-tagged, E. coli SoluBL21 (DE3), Ni-NTA
T5 sequence (Z9MAI7V5A1 1-262): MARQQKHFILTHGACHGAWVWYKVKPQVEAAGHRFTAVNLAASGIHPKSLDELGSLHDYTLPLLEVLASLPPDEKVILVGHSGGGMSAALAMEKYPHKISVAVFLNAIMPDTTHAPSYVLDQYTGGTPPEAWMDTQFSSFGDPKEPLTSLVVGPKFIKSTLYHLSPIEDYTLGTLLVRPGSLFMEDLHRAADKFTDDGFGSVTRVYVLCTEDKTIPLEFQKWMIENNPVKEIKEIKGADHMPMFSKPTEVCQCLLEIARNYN

[6] = biological target: T6, AmICYC (Antirrhinum majus, UniProt Z9RFY5ZUY7); assay: spectrophotometric esterase assay, […] nm; conditions: 2 mM substrate; 0.5 uM enzyme; 100 mM HEPES pH 7; 1 mM CaCl2; 25 °C
T6 construct: synthetic full-length gene in pOPINF, His-tagged, E. coli SoluBL21 (DE3), Ni-NTA
T6 sequence (Z9RFY5ZUY7 1-261): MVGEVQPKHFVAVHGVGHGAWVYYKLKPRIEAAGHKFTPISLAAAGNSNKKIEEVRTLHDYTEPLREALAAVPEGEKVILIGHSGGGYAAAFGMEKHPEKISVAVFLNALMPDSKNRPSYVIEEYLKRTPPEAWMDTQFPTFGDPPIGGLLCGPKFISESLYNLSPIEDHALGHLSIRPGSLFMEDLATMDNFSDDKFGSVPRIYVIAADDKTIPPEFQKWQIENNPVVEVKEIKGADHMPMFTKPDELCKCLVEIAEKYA

[7] = biological target: T7, LjICYC (Lonicera japonica, UniProt Z9XP04JJ76); assay: spectrophotometric esterase assay, […] nm; conditions: 2 mM substrate; 0.5 uM enzyme; 100 mM HEPES pH 7; 1 mM CaCl2; 25 °C
T7 construct: synthetic full-length gene in pOPINF, His-tagged, E. coli SoluBL21 (DE3), Ni-NTA
T7 sequence (Z9XP04JJ76 1-260): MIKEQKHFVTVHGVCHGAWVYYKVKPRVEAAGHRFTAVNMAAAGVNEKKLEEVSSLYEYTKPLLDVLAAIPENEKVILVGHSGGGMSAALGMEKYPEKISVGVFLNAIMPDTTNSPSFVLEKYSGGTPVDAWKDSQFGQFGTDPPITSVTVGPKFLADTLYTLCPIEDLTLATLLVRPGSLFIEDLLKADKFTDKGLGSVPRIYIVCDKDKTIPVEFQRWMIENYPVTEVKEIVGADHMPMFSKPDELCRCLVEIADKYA

[8] = biological target: T8, AmISY (Antirrhinum majus, UniProt A0A221J5P3); assay: GC-MS of products; conditions: 0.5 mM 8-oxogeranial; 1 mM NADPH; 0.5 uM AmISY; 100 mM MOPS pH 7.5; 30 °C; 3 h
T8 construct: gene ISY; recombinant, E. coli, pOPINF His-tagged
T8 sequence (A0A221J5P3 1-387): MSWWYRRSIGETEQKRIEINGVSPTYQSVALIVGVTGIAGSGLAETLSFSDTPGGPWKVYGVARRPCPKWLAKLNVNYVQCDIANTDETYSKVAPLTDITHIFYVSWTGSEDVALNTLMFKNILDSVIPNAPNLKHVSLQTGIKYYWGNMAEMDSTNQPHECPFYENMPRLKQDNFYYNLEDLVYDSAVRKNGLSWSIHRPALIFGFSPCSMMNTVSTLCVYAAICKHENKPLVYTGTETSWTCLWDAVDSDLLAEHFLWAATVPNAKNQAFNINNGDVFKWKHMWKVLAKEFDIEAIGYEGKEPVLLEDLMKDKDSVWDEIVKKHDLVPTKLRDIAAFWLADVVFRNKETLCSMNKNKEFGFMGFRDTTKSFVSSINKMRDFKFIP

[9] = biological target: T9, CrISY (Catharanthus roseus, UniProt K7WDL7); assay: GC-MS of products; conditions: 0.5 mM 8-oxogeranial; 1 mM NADPH; 0.25 uM CrISY; 100 mM MOPS pH 7.5; 30 °C; 3 h
T9 construct: recombinant, E. coli, pOPINF His-tagged
T9 sequence (K7WDL7 whole entry): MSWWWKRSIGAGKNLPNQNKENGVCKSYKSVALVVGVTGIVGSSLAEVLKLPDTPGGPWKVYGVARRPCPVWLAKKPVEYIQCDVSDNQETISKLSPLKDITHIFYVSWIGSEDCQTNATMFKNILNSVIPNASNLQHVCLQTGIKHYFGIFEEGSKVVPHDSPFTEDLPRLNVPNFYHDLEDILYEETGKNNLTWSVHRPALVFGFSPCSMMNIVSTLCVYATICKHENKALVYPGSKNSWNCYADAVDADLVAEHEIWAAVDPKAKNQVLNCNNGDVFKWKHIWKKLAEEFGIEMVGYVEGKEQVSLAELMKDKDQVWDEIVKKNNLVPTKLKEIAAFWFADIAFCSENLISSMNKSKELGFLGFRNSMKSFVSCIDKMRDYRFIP

[10] = biological target: T4, SiICYC; assay: GC-MS of 7R-cis-cis nepetalactol formed in coupled assay with AmISY; conditions: enol generated in situ from 0.5 mM 8-oxogeranial by AmISY with 1 mM NADPH; 2 uM ICYC; 100 mM MOPS pH 7.5; 30 °C; 3 h
[11] = biological target: T6, AmICYC; assay: as above; conditions: enol generated in situ from 0.5 mM 8-oxogeranial by AmISY with 1 mM NADPH; 2 uM ICYC; 100 mM MOPS pH 7.5; 30 °C; 3 h
[12] = biological target: T7, LjICYC; assay: GC-MS of 7S-cis-trans nepetalactol formed in coupled assay with CrISY; conditions: enol generated in situ from 0.5 mM 8-oxogeranial by CrISY with 1 mM NADPH; 2 uM ICYC; 100 mM MOPS pH 7.5; 30 °C; 3 h
[13] = biological target: T2, VcICYC; assay: as above; conditions: enol generated in situ from 0.5 mM 8-oxogeranial by CrISY with 1 mM NADPH; 2 uM ICYC; 100 mM MOPS pH 7.5; 30 °C; 3 h
[14] = biological target: T3, CrICYC; assay: as above; conditions: enol generated in situ from 0.5 mM 8-oxogeranial by CrISY with 1 mM NADPH; 2 uM ICYC; 100 mM MOPS pH 7.5; 30 °C; 3 h
[15] = biological target: T1, CiICYC; assay: as above; conditions: enol generated in situ from 0.5 mM 8-oxogeranial by CrISY with 1 mM NADPH; 2 uM ICYC; 100 mM MOPS pH 7.5; 30 °C; 3 h
[16] = biological target: T5, AsICYC; assay: as above; conditions: enol generated in situ from 0.5 mM 8-oxogeranial by CrISY with 1 mM NADPH; 2 uM ICYC; 100 mM MOPS pH 7.5; 30 °C; 3 h

CC(=O)Oc1ccc([N+](=O)[O-])cc1 [4-nitrophenyl acetate]
spectrophotometric esterase assay, 405 nm [1]: All ICYC orthologues showed esterase activity when tested with the model substrate 4-nitrophenyl acetate | spectrophotometric esterase assay, 405 nm [2]: All ICYC orthologues showed esterase activity when tested with the model substrate 4-nitrophenyl acetate | spectrophotometric esterase assay, 405 nm [3]: All ICYC orthologues showed esterase activity when tested with the model substrate 4-nitrophenyl acetate | spectrophotometric esterase assay, 405 nm [4]: All ICYC orthologues showed esterase activity when tested with the model substrate 4-nitrophenyl acetate | spectrophotometric esterase assay, 405 nm [5]: All ICYC orthologues showed esterase activity when tested with the model substrate 4-nitrophenyl acetate | spectrophotometric esterase assay, 405 nm [6]: All ICYC orthologues showed esterase activity when tested with the model substrate 4-nitrophenyl acetate | spectrophotometric esterase assay, 405 nm [7]: All ICYC orthologues showed esterase activity when tested with the model substrate 4-nitrophenyl acetate

C/C(C=O)=C\CC/C(C)=C/C=O [8-oxogeranial]
GC-MS of products [8]: CrISY and AmISY reduce 8-oxogeranial to form the unstable intermediate S- or R-8-oxocitronellyl enol | GC-MS of products [9]: CrISY and AmISY reduce 8-oxogeranial to form the unstable intermediate S- or R-8-oxocitronellyl enol

C/C(C=O)=C\CC[C@@H](C)/C=C/O [R-8-oxocitronellyl enol]
GC-MS of 7R-cis-cis nepetalactol formed in coupled assay with AmISY [10]: When AmISY was assayed with ICYC orthologues, a new peak appeared | GC-MS of 7R-cis-cis nepetalactol formed in coupled assay with AmISY [11]: When AmISY was assayed with ICYC orthologues, a new peak appeared

C/C(C=O)=C\CC[C@H](C)/C=C/O [S-8-oxocitronellyl enol]
GC-MS of 7S-cis-trans nepetalactol formed in coupled assay with CrISY [12]: any of the ICYC orthologues, 7S-cis-trans (7S, 4aS, 7aS) nepetalactol accumulation was substantially increased | GC-MS of 7S-cis-trans nepetalactol formed in coupled assay with CrISY [13]: any of the ICYC orthologues, 7S-cis-trans (7S, 4aS, 7aS) nepetalactol accumulation was substantially increased | GC-MS of 7S-cis-trans nepetalactol formed in coupled assay with CrISY [14]: any of the ICYC orthologues, 7S-cis-trans (7S, 4aS, 7aS) nepetalactol accumulation was substantially increased | GC-MS of 7S-cis-trans nepetalactol formed in coupled assay with CrISY [15]: any of the ICYC orthologues, 7S-cis-trans (7S, 4aS, 7aS) nepetalactol accumulation was substantially increased | GC-MS of 7S-cis-trans nepetalactol formed in coupled assay with CrISY [16]: any of the ICYC orthologues, 7S-cis-trans (7S, 4aS, 7aS) nepetalactol accumulation was substantially increased
